In test [1] the target is T1, glutathione-S-transferase (GST) tagged LXRalpha LBD (ligand binding domain) (Homo sapiens, UniProt Q13133).
T1 construct: purchased Invitrogen pv4655
T1 sequence (Q13133 209-447 limits assumed): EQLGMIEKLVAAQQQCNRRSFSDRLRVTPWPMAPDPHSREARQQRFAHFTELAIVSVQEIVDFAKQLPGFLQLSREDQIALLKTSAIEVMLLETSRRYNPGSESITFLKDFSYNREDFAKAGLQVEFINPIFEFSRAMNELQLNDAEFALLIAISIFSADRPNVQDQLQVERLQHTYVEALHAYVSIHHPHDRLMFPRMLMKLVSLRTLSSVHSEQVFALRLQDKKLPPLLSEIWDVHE
The test can be described thus: LanthaScreen TR-FRET Liver X Receptor Coactivator Assay, LXR alpha. The test is classed as biochemical. The note with it: for EC50 / LXR alpha IP (nM): potency (Inflection Point) of compound-induced co-activator recruitment, TR-FRET; for Emax: read-out: LXR alpha actiivty at max dose (%). How it is done: (§1) While running the LanthaScreen™ TR-FRET Liver X Receptor Coactivator Assay, LXR alpha-LBD or LXR beta-LBD was added to ligand test compounds followed by addition of a mixture of a fluorescein-labelled coactivator peptide and terbium-conjugated anti-GST antibody. After an incubation period at room temperature, TR-FRET (time-resolved fluorescence resonance energy transfer) was measured using a filter-based instrument capable of TR-FRET, e.g. PerkinElmer Envision.

Test [2] concerns the target T2, glutathione-S-transferase (GST) tagged LXRbeta LBD (ligand binding domain) (Homo sapiens, UniProt P55055).
T2 construct: purchased Invitrogen pv4658.pps
T2 sequence (P55055 222-460 limits assumed): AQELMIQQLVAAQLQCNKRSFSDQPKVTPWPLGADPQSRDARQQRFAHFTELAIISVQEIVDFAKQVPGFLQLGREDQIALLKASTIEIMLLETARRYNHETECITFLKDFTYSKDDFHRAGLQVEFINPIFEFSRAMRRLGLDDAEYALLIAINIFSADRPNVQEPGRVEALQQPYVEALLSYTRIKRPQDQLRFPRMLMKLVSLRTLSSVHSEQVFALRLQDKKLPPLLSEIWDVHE
The test can be described thus: LanthaScreen TR-FRET Liver X Receptor Coactivator Assay, LXR beta. The test is classed as biochemical. The note with it: for Emax: read-out: LXR beta actiivty at max dose (%); for EC50: potency (Inflection Point) of compound-induced co-activator recruitment, TR-FRET. The procedure: as §1

[3] abbreviates: efficacy (Emax) in relation to reference dual agonist T0901317.

Read-outs that look alike come from different tables or passages of the source.

In the case of `CNC(=O)c1ccc(NCCCCC2CCN(C(=O)C(O)(c3cccc(OC)c3)C(F)(F)F)CC2)cc1Cl` (single isomer, unassigned) [Example 1-1, (R or S)-2-chloro-N-methyl-4-(4-(1-(3,3,3-trifluoro-2-hydroxy-2-(3-methoxyphenyl)propanoyl)piperidin-4-yl)butylamino)benzamide], the EC50 in test [1] (LXR alpha IP (nM)) worked out at 577 nM; in test [2] (read-out: LXR beta IP) it was 8 nM. Further, the Emax is 17% in test [1] and 68% in test [2] (setting [3]).

On to `NC(=O)c1ccc(NCCCCC2CCN(C(=O)C(O)(c3ccccc3)C(F)(F)F)CC2)cc1Cl` (single isomer, unassigned) [Example 1-2, (R or S)-2-chloro-4-(4-(1-(3,3,3-trifluoro-2-hydroxy-2-phenylpropanoyl)piperidin-4-yl)butylamino)benzamide], for which the Emax in test [1] (setting [3]) came to 43%; in test [2] (setting [3]) it was 59%. The EC50 is 266 nM in test [1] (read-out: LXR alpha IP) and 15 nM in test [2] (read-out: LXR beta IP).

In the case of `CNC(=O)c1ccc(NCCCCC2CCN(C(=O)C(O)(c3ccccc3)C(F)(F)F)CC2)cc1Cl` (single isomer, unassigned) [Example 1-3, (R or S)-2-chloro-N-methyl-4-(4-(1-(3,3,3-trifluoro-2-hydroxy-2-phenylpropanoyl)piperidin-4-yl)butylamino)benzamide], the Emax turned out to be 38% in test [1] (setting [3]) and 75% in test [2] (setting [3]). For the same compound, the EC50 in test [1] (read-out: LXR alpha IP) was 481 nM; in test [2] (read-out: LXR beta IP), 9 nM.

Take `CNC(=O)c1ccc(NCCCCC2CCN(C(=O)C(O)(c3cccc(Cl)c3)C(F)(F)F)CC2)cc1Cl` (single isomer, unassigned) [Example 1-5, (R or S)-2-chloro-4-(4-(1-(2-(3-chlorophenyl)-3,3,3-trifluoro-2-hydroxypropanoyl)piperidin-4-yl)butylamino)-N-methylbenzamide]: the values for the Emax in test [1] (setting [3]) and in test [2] (setting [3]) were 32% and 72%, respectively. Besides, the EC50 in test [1] (read-out: LXR alpha IP) worked out at 239 nM; in test [2] (read-out: LXR beta IP), 8 nM.

On to `CNC(=O)c1ccc(NCCCCC2CCN(C(=O)C(O)(c3cccc(OC)c3)C(F)(F)F)CC2)cc1F` (single isomer, unassigned) [Example 1-6, (R or S)-2-fluoro-N-methyl-4-(4-(1-(3,3,3-trifluoro-2-hydroxy-2-(3-methoxyphenyl)propanoyl)piperidin-4-yl)butylamino)benzamide], for which the Emax turned out to be 16% in test [1] (setting [3]) and 63% in test [2] (setting [3]). Further, the EC50 in test [1] (read-out: LXR alpha IP) turned out to be 3300 nM; in test [2] (read-out: LXR beta IP), 102 nM.

As to `CNC(=O)c1ccc(NCCCCC2CCN(C(=O)C(O)(c3cccc(OC4CC4)c3)C(F)(F)F)CC2)cc1Cl` (single isomer, unassigned) [Example 1-7, (S or R)-2-chloro-4-(4-(1-(2-(3-cyclopropoxyphenyl)-3,3,3-trifluoro-2-hydroxypropanoyl)piperidin-4-yl)butylamino)-N-methylbenzamide], the Emax in test [1] (setting [3]) turned out to be 19%; in test [2] (setting [3]), 56%. The EC50 stood at 3160 nM in test [1] (read-out: LXR alpha IP) and 14 nM in test [2] (read-out: LXR beta IP).

Regarding `CCc1cccc(C(O)(C(=O)N2CCC(CCCCNc3ccc(C(=O)NC)c(Cl)c3)CC2)C(F)(F)F)c1` (single isomer, unassigned) [Example 1-8, (S or R)-2-chloro-4-(4-(1-(2-(3-ethylphenyl)-3,3,3-trifluoro-2-hydroxypropanoyl)piperidin-4-yl)butylamino)-N-methylbenzamide], the Emax in test [1] (setting [3]) came out at 12%; in test [2] (setting [3]), 52%. Further, the “LXR alpha IP (nM)” value in test [1] is “No IP”. Also, the EC50 in test [2] (read-out: LXR beta IP) is 4 nM.

As for `CNC(=O)c1ccc(NCCCCC2CCN(C(=O)C(O)(c3cccc(OC(F)(F)F)c3)C(F)(F)F)CC2)cc1Cl` (single isomer, unassigned) [Example 1-9, (S or R)-2-chloro-N-methyl-4-(4-(1-(3,3,3-trifluoro-2-hydroxy-2-(3-(trifluoromethoxy)phenyl)propanoyl)piperidin-4-yl)butylamino)benzamide], the Emax amounted to 13% in test [1] (setting [3]) and 62% in test [2] (setting [3]). The “LXR alpha IP (nM)” value in test [1] was “No IP”. The EC50 in test [2] (read-out: LXR beta IP) came to 17 nM.

`CNC(=O)c1ccc(NCCCCC2CCN(C(=O)C(O)(c3cccc(OC(C)C)c3)C(F)(F)F)CC2)cc1Cl` (single isomer, unassigned) [Example 1-10, (S or R)-2-chloro-N-methyl-4-(4-(1-(3,3,3-trifluoro-2-hydroxy-2-(3-isopropoxyphenyl)propanoyl)piperidin-4-yl)butylamino)benzamide]: the Emax in test [1] (setting [3]) came to 19%; in test [2] (setting [3]), 68%. Also, the EC50 in test [1] (read-out: LXR alpha IP) stood at 2090 nM; in test [2] (read-out: LXR beta IP), 14 nM.

Take `CNC(=O)c1ccc(NCCCCC2CCN(C(=O)C(O)(c3cc(Cl)cc(Cl)c3)C(F)(F)F)CC2)cc1Cl` (single isomer, unassigned) [Example 1-11, (R or S)-2-chloro-4-(4-(1-(2-(3,5-dichlorophenyl)-3,3,3-trifluoro-2-hydroxypropanoyl)piperidin-4-yl)butylamino)-N-methylbenzamide]: the Emax in test [1] (setting [3]) is 0%; in test [2] (setting [3]), 29%. For the same compound, the “LXR alpha IP (nM)” value in test [1] is listed as “No IP”. Further, the EC50 in test [2] (read-out: LXR beta IP) worked out at 3 nM.

In the case of `CN(C)C(=O)c1ccc(NCCCCC2CCN(C(=O)C(O)(c3ccccc3)C(F)(F)F)CC2)cc1Cl` (single isomer, unassigned) [Example 1-15, (S or R)-2-chloro-N,N-dimethyl-4-(4-(1-(3,3,3-trifluoro-2-hydroxy-2-phenylpropanoyl)piperidin-4-yl)butylamino)benzamide], the Emax is 43% in test [1] (setting [3]) and 72% in test [2] (setting [3]). Further, the EC50 in test [1] (read-out: LXR alpha IP) worked out at 147 nM; in test [2] (read-out: LXR beta IP), 3 nM.

As for `CN(C)C(=O)c1ccc(N(C)CCCC2CCN(C(=O)C(O)(c3ccccc3)C(F)(F)F)CC2)cc1Cl` (single isomer, unassigned) [Example 3-1, (S or R)-2-chloro-N,N-dimethyl-4-(methyl(3-(1-(3,3,3-trifluoro-2-hydroxy-2-phenylpropanoyl)piperidin-4-yl)propyl)amino)benzamide], the Emax in test [1] (setting [3]) came out at 16%; in test [2], 109%. The EC50 is 1150 nM in test [1] (read-out: LXR alpha IP) and 47 nM in test [2] (LXR beta IP (nM)).

As for `COc1cccc([C@@](O)(C(=O)N2CCC(CCC[C@H](C)Nc3ccc(C(=O)N(C)C)c(Cl)c3)CC2)C(F)(F)F)c1` (single isomer, unassigned) [Example 4-1, 2-chloro-N,N-dimethyl-4-((S or R)-5-(1-((R or S)-3,3,3-trifluoro-2-hydroxy-2-(3-methoxyphenyl)propanoyl)piperidin-4-yl)pentan-2-ylamino)benzamide], the results for the Emax in test [1] (setting [3]) and in test [2] (setting [3]) were 22% and 71%, respectively. Further, the EC50 in test [1] (read-out: LXR alpha IP) turned out to be 734 nM; in test [2] (read-out: LXR beta IP) it was 13 nM.

As for `CC(CCCC1CCN(C(=O)[C@](O)(c2cccc(Cl)c2)C(F)(F)F)CC1)Nc1ccc(C(=O)N(C)C)c(Cl)c1` (single isomer, unassigned) [Example 4-2, 2-chloro-4-((S or R)-5-(1-((R or S)-2-(3-chlorophenyl)-3,3,3-trifluoro-2-hydroxypropanoyl)piperidin-4-yl)pentan-2-ylamino)-N,N-dimethylbenzamide], the Emax in test [1] (setting [3]) was 37%; in test [2] (setting [3]) it was 84%. The values for the EC50 in test [1] (read-out: LXR alpha IP) and in test [2] (read-out: LXR beta IP) were 382 nM and 7 nM, respectively.

For the compound `CC(CCCC1CCN(C(=O)[C@](O)(c2ccccc2)C(F)(F)F)CC1)Nc1ccc(C(=O)N(C)C)c(Cl)c1` (single isomer, unassigned) [Example 4-3, 2-chloro-N,N-dimethyl-4-((S or R)-5-(1-((R or S)-3,3,3-trifluoro-2-hydroxy-2-phenylpropanoyl)piperidin-4-yl)pentan-2-ylamino)benzamide], in test [1] (setting [3]), the “LXR alpha actiivty at max dose (%)” value was 35%. The EC50 in test [1] (read-out: LXR alpha IP) came to 653 nM; in test [2] (read-out: LXR beta IP), 15 nM. Besides, in test [2] (setting [3]), the Emax worked out at 79%.

For `CC(CCCC1CCN(C(=O)[C@](O)(c2ccccc2)C(F)(F)F)CC1)Nc1ccc(C(=O)N(C)C)c(Cl)c1` (single isomer, unassigned) [Example 4-4, 2-chloro-N,N-dimethyl-4-((R or S)-5-(1-((R or S)-3,3,3-trifluoro-2-hydroxy-2-phenylpropanoyl)piperidin-4-yl)pentan-2-ylamino)benzamide], in test [1] (setting [3]), the “LXR alpha actiivty at max dose (%)” value amounted to 7%. Further, the “LXR alpha IP (nM)” value in test [1] is reported as “No IP”. Further, in test [2] (setting [3]), the “LXR beta actiivty at max dose (%)” value is 59%. The EC50 in test [2] (read-out: LXR beta IP) worked out at 325 nM.
